Values of other authors in patent US12447129B2, “Solid dosage form production” (University of Lancashire, priority 2014, dated 2025).

Key:
[1] = plasticiser alone; input to the calculation
[2] = at 25° C.

Structure (SMILES): CC(=O)OCC(COC(C)=O)OC(C)=O [Triacitin]
- Tg (K) plasticiser [1]: 193.7 K

Structure (SMILES): Cn1c(=O)c2[nH]cnc2n(C)c1=O [theophylline]
- water sol. [2]: 7360 mg/L

Structure (SMILES): CCOC(=O)CC(O)(CC(=O)OCC)C(=O)OCC [TEC]
- Tg (K) plasticiser [1]: 203.55 K
